Reference: US20220389061A1, “IMMUNOMODULATORS” (priority 2019, published 2022)
Starred links: 1 amine or outer side, 2 acyl side, 3 side chain; linkers in the order of their positions; H or OH if unused. Positions of bridges follow the written chain, without caps; N, C: chain ends. Non-standard residues stand in square brackets, D forms with d. Residues, ends and D or L forms follow the SMILES beside them. Groups on a side chain read outwards from the residue. *: point of attachment. Trp(1-CH2CO2Me) = COC(=O)Cn1cc(C[C@H](N)C(=O)O)c2ccccc21; Trp(1-CH2COOH) = N[C@@H](Cc1cn(CC(=O)O)c2ccccc12)C(=O)O; Benzoyl(2-(4-MeOPh)) = COc1ccc(-c2ccccc2C(=O)*)cc1; NH(benzothiophen-5-yl) = c1cc2cc(N*)ccc2s1; X24 = COc1cc(NC(=S)*)ccc1-n1cnc(C)n1; X31 = S=C(Nc1cccc2c(Cl)c[nH]c12)*; Hyp = O=C(O)[C@@H]1C[C@@H](O)CN1; X25 = FC(F)(F)Oc1ccc(NC(=S)*)cc1; X56 = COc1cc([N+](=O)[O-])ccc1N*; X27 = Cc1cc([N+](=O)[O-])ccc1N*; X60 = Cc1cc2cc(NC(=S)*)ccc2o1; NMeNle = CCCC[C@H](NC)C(=O)O; X16 = S=C(Nc1ccc2c(c1)OCO2)*; X4 = S=C(Nc1ccc2c(c1)OCCO2)*; NMeA = CN[C@@H](C)C(=O)O; Dab = NCC[C@H](N)C(=O)O; Dap = NC[C@H](N)C(=O)O; X51 = Cc1cccc(Cl)c1N*; CO = O=C([*:1])[*:2]; NHPh = c1ccc(N*)cc1

target: T1, PD-1/PD-L1 (Homo sapiens, UniProt Q9NZQ7); assay: PD-1/PD-L1 Homogenous Time-Resolved Fluorescence (HTRF) binding assay; conditions: not given
T1 construct: TVMV protease site linker (C); made in house; host or cells: HEK293T cells
Method in brief: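 Compounds preincubated 15 min with PD-L1-His (10 nM final), then PD-1-Ig (20 nM final) added for 15 min in dPBS with 0.1% BSA, 0.05% Tween-20. Detection by Eu-cryptate anti-Ig (1 nM) and APC anti-His (20 nM) HTRF.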

T1 sequence (Q9NZQ7 18-239): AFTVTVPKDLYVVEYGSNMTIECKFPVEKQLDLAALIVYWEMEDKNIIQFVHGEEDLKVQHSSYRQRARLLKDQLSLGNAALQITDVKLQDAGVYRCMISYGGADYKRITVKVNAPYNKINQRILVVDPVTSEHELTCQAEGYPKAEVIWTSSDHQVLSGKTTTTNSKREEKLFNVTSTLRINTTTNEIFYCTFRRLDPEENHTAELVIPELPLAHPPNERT

Structure (SMILES) | IC50 [nM]
CCCC[C@H]1C(=O)N(C)[C@@H](CCCC)C(=O)N[C@@H](CC(C)C)C(=O)N[C@H](C(=O)NCC(N)=O)CSCC(=O)N[C@@H](Cc2ccc(O)cc2)C(=O)N(C)[C@@H](C)C(=O)N[C@@H](CC(N)=O)C(=O)N2CCC[C@H]2C(=O)N[C@@H](CNC(=O)Nc2ccc([N+](=O)[O-])cc2C)C(=O)N[C@@H](CC(C)C)C(=O)N2C[C@H](O)C[C@H]2C(=O)N[C@@H](Cc2c[nH]c3ccccc23)C(=O)N[C@@H](CCNC(=O)Nc2ccc([N+](=O)[O-])cc2C)C(=O)N[C@@H](Cc2cn(CC(=O)O)c3ccccc23)C(=O)N1C [Example 1122] ({CH2CO}-Y[NMeA]NP[Dap]([CO-X27])L[Hyp]W[Dab]([CO-X27])[Trp(1-CH2COOH)][NMeNle][NMeNle]LCG-NH2; thioether N-14) | 14

same assay, conditions: PD-L1-His 10 nM pre-incubated with inhibitor, PD-1-Ig 20 nM; read-out: HTRF IC50

Structure (SMILES) | IC50 [nM]
CCCC[C@H]1C(=O)N(C)[C@@H](CCCC)C(=O)N[C@@H](CC(C)C)C(=O)N[C@H](C(=O)NCC(N)=O)CSCC(=O)N[C@@H](Cc2ccc(O)cc2)C(=O)N(C)[C@@H](C)C(=O)N[C@@H](CC(N)=O)C(=O)N2CCC[C@H]2C(=O)N[C@@H](CNC(=O)c2ccccc2-c2ccc(OC)cc2)C(=O)N[C@@H](CC(C)C)C(=O)N2C[C@H](O)C[C@H]2C(=O)N[C@@H](Cc2c[nH]c3ccccc23)C(=O)N[C@@H](CCN)C(=O)N[C@@H](Cc2cn(CC(=O)O)c3ccccc23)C(=O)N1C [Example 1061] ({CH2CO}-Y[NMeA]NP[Dap](Benzoyl(2-(4-MeOPh)))L[Hyp]W[Dab][Trp(1-CH2COOH)][NMeNle][NMeNle]LCG-NH2; thioether N-14) | 4
CCCC[C@H]1C(=O)N(C)[C@@H](CCCC)C(=O)N[C@@H](CC(C)C)C(=O)N[C@H](C(=O)NCC(N)=O)CSCC(=O)N[C@@H](Cc2ccc(O)cc2)C(=O)N(C)[C@@H](C)C(=O)N[C@@H](CC(N)=O)C(=O)N2CCC[C@H]2C(=O)N[C@@H](CNC(=S)Nc2ccc(-n3cnc(C)n3)c(OC)c2)C(=O)N[C@@H](CC(C)C)C(=O)N2C[C@H](O)C[C@H]2C(=O)N[C@@H](Cc2c[nH]c3ccccc23)C(=O)N[C@@H](CCNC(=S)Nc2ccc(-n3cnc(C)n3)c(OC)c2)C(=O)N[C@@H](Cc2cn(CC(=O)O)c3ccccc23)C(=O)N1C [Example 1092] ({CH2CO}-Y[NMeA]NP[Dap](X24)L[Hyp]W[Dab](X24)[Trp(1-CH2COOH)][NMeNle][NMeNle]LCG-NH2; thioether N-14) | 3.4
CCCC[C@H]1C(=O)N(C)[C@@H](CCCC)C(=O)N[C@@H](CC(C)C)C(=O)N[C@H](C(=O)NCC(N)=O)CSCC(=O)N[C@@H](Cc2ccc(O)cc2)C(=O)N(C)[C@@H](C)C(=O)N[C@@H](CC(N)=O)C(=O)N2CCC[C@H]2C(=O)N[C@@H](CNC(=O)Nc2ccccc2)C(=O)N[C@@H](CC(C)C)C(=O)N2C[C@H](O)C[C@H]2C(=O)N[C@@H](Cc2c[nH]c3ccccc23)C(=O)N[C@@H](CCN)C(=O)N[C@@H](Cc2cn(CC(=O)O)c3ccccc23)C(=O)N1C [Example 1056] ({CH2CO}-Y[NMeA]NP[Dap]([CO-NHPh])L[Hyp]W[Dab][Trp(1-CH2COOH)][NMeNle][NMeNle]LCG-NH2; thioether N-14) | 3.1
CCCC[C@H]1C(=O)N(C)[C@@H](CCCC)C(=O)N[C@@H](CC(C)C)C(=O)N[C@H](C(=O)NCC(N)=O)CSCC(=O)N[C@@H](Cc2ccc(O)cc2)C(=O)N(C)[C@@H](C)C(=O)N[C@@H](CC(N)=O)C(=O)N2CCC[C@H]2C(=O)N[C@@H](CNC(=O)Nc2ccc([N+](=O)[O-])cc2OC)C(=O)N[C@@H](CC(C)C)C(=O)N2C[C@H](O)C[C@H]2C(=O)N[C@@H](Cc2c[nH]c3ccccc23)C(=O)N[C@@H](CCN)C(=O)N[C@@H](Cc2cn(CC(=O)O)c3ccccc23)C(=O)N1C [Example 1108] ({CH2CO}-Y[NMeA]NP[Dap]([CO-X56])L[Hyp]W[Dab][Trp(1-CH2COOH)][NMeNle][NMeNle]LCG-NH2; thioether N-14) | 2.4
CCCC[C@H]1C(=O)N(C)[C@@H](CCCC)C(=O)N[C@@H](CC(C)C)C(=O)N[C@H](C(=O)NCC(N)=O)CSCC(=O)N[C@@H](Cc2ccc(O)cc2)C(=O)N(C)[C@@H](C)C(=O)N[C@@H](CC(N)=O)C(=O)N2CCC[C@H]2C(=O)N[C@@H](CNC(=S)Nc2ccc(OC(F)(F)F)cc2)C(=O)N[C@@H](CC(C)C)C(=O)N2C[C@H](O)C[C@H]2C(=O)N[C@@H](Cc2c[nH]c3ccccc23)C(=O)N[C@@H](CCNC(=S)Nc2ccc(OC(F)(F)F)cc2)C(=O)N[C@@H](Cc2cn(CC(=O)O)c3ccccc23)C(=O)N1C [Example 1010] ({CH2CO}-Y[NMeA]NP[Dap](X25)L[Hyp]W[Dab](X25)[Trp(1-CH2COOH)][NMeNle][NMeNle]LCG-NH2; thioether N-14) | 7.1
CCCC[C@H]1C(=O)N(C)[C@@H](CCCC)C(=O)N[C@@H](CC(C)C)C(=O)N[C@H](C(=O)NCC(N)=O)CSCC(=O)N[C@@H](Cc2ccc(OC)cc2)C(=O)N(C)[C@@H](C)C(=O)N[C@@H](CC(N)=O)C(=O)N2CCC[C@H]2C(=O)N[C@@H](CNC(=O)c2ccccc2-c2ccc(OC)cc2)C(=O)N[C@@H](CC(C)C)C(=O)N2C[C@H](O)C[C@H]2C(=O)N[C@@H](Cc2c[nH]c3ccccc23)C(=O)N[C@@H](CCNC(=O)c2ccccc2-c2ccc(OC)cc2)C(=O)N[C@@H](Cc2cn(CC(=O)OC)c3ccccc23)C(=O)N1C [Example 1075] ({CH2CO}-Y(Me)[NMeA]NP[Dap](Benzoyl(2-(4-MeOPh)))L[Hyp]W[Dab](Benzoyl(2-(4-MeOPh)))[Trp(1-CH2CO2Me)][NMeNle][NMeNle]LCG-NH2; thioether N-14) | 91
CCCC[C@H]1C(=O)N(C)[C@@H](CCCC)C(=O)N[C@@H](CC(C)C)C(=O)N[C@H](C(=O)NCC(N)=O)CSCC(=O)N[C@@H](Cc2ccc(O)cc2)C(=O)N(C)[C@@H](C)C(=O)N[C@@H](CC(N)=O)C(=O)N2CCC[C@H]2C(=O)N[C@@H](CNC(=O)Nc2c(C)cccc2Cl)C(=O)N[C@@H](CC(C)C)C(=O)N2C[C@H](O)C[C@H]2C(=O)N[C@@H](Cc2c[nH]c3ccccc23)C(=O)N[C@@H](CCNC(=O)Nc2c(C)cccc2Cl)C(=O)N[C@@H](Cc2cn(CC(=O)O)c3ccccc23)C(=O)N1C [Example 1107] ({CH2CO}-Y[NMeA]NP[Dap]([CO-X51])L[Hyp]W[Dab]([CO-X51])[Trp(1-CH2COOH)][NMeNle][NMeNle]LCG-NH2; thioether N-14) | 0.5

The next lines start with the values.

IC50 [nM] | Structure (SMILES)
3.1 | CCCC[C@H]1C(=O)N(C)[C@@H](CCCC)C(=O)N[C@@H](CC(C)C)C(=O)N[C@H](C(=O)NCC(N)=O)CSCC(=O)N[C@@H](Cc2ccc(O)cc2)C(=O)N(C)[C@@H](C)C(=O)N[C@@H](CC(N)=O)C(=O)N2CCC[C@H]2C(=O)N[C@@H](CNC(=S)Nc2ccc3c(c2)OCCO3)C(=O)N[C@@H](CC(C)C)C(=O)N2C[C@H](O)C[C@H]2C(=O)N[C@@H](Cc2c[nH]c3ccccc23)C(=O)N[C@@H](CCNC(=S)Nc2ccc3c(c2)OCCO3)C(=O)N[C@@H](Cc2cn(CC(=O)O)c3ccccc23)C(=O)N1C [Example 3069] ({CH2CO}-Y[NMeA]NP[Dap](X4)L[Hyp]W[Dab](X4)[Trp(1-CH2COOH)][NMeNle][NMeNle]LCG-NH2; thioether N-14)
2.3 | CCCC[C@H]1C(=O)N(C)[C@@H](CCCC)C(=O)N[C@@H](CC(C)C)C(=O)N[C@H](C(=O)NCC(N)=O)CSCC(=O)N[C@@H](Cc2ccc(O)cc2)C(=O)N(C)[C@@H](C)C(=O)N[C@@H](CC(N)=O)C(=O)N2CCC[C@H]2C(=O)N[C@@H](CNC(=O)Nc2ccc3sccc3c2)C(=O)N[C@@H](CC(C)C)C(=O)N2C[C@H](O)C[C@H]2C(=O)N[C@@H](Cc2c[nH]c3ccccc23)C(=O)N[C@@H](CCNC(=O)Nc2ccc3sccc3c2)C(=O)N[C@@H](Cc2cn(CC(=O)O)c3ccccc23)C(=O)N1C [Example 3003] ({CH2CO}-Y[NMeA]NP[Dap]([CO-NH(benzothiophen-5-yl)])L[Hyp]W[Dab]([CO-NH(benzothiophen-5-yl)])[Trp(1-CH2COOH)][NMeNle][NMeNle]LCG-NH2; thioether N-14)
2.8 | CCCC[C@H]1C(=O)N(C)[C@@H](CCCC)C(=O)N[C@@H](CC(C)C)C(=O)N[C@H](C(=O)NCC(N)=O)CSCC(=O)N[C@@H](Cc2ccc(O)cc2)C(=O)N(C)[C@@H](C)C(=O)N[C@@H](CC(N)=O)C(=O)N2CCC[C@H]2C(=O)N[C@@H](CNC(=S)Nc2ccc3oc(C)cc3c2)C(=O)N[C@@H](CC(C)C)C(=O)N2C[C@H](O)C[C@H]2C(=O)N[C@@H](Cc2c[nH]c3ccccc23)C(=O)N[C@@H](CCN)C(=O)N[C@@H](Cc2cn(CC(=O)O)c3ccccc23)C(=O)N1C [Example 3055] ({CH2CO}-Y[NMeA]NP[Dap](X60)L[Hyp]W[Dab][Trp(1-CH2COOH)][NMeNle][NMeNle]LCG-NH2; thioether N-14)
2.7 | CCCC[C@H]1C(=O)N(C)[C@@H](CCCC)C(=O)N[C@@H](CC(C)C)C(=O)N[C@H](C(=O)NCC(N)=O)CSCC(=O)N[C@@H](Cc2ccc(O)cc2)C(=O)N(C)[C@@H](C)C(=O)N[C@@H](CC(N)=O)C(=O)N2CCC[C@H]2C(=O)N[C@@H](CNC(=S)Nc2ccc3c(c2)OCO3)C(=O)N[C@@H](CC(C)C)C(=O)N2C[C@H](O)C[C@H]2C(=O)N[C@@H](Cc2c[nH]c3ccccc23)C(=O)N[C@@H](CCNC(=S)Nc2ccc3c(c2)OCO3)C(=O)N[C@@H](Cc2cn(CC(=O)O)c3ccccc23)C(=O)N1C [Example 3050] ({CH2CO}-Y[NMeA]NP[Dap](X16)L[Hyp]W[Dab](X16)[Trp(1-CH2COOH)][NMeNle][NMeNle]LCG-NH2; thioether N-14)
3.3 | CCCC[C@H]1C(=O)N(C)[C@@H](CCCC)C(=O)N[C@@H](CC(C)C)C(=O)N[C@H](C(=O)NCC(N)=O)CSCC(=O)N[C@@H](Cc2ccc(O)cc2)C(=O)N(C)[C@@H](C)C(=O)N[C@@H](CC(N)=O)C(=O)N2CCC[C@H]2C(=O)N[C@@H](CNC(=S)Nc2cccc3c(Cl)c[nH]c23)C(=O)N[C@@H](CC(C)C)C(=O)N2C[C@H](O)C[C@H]2C(=O)N[C@@H](Cc2c[nH]c3ccccc23)C(=O)N[C@@H](CCNC(=S)Nc2cccc3c(Cl)c[nH]c23)C(=O)N[C@@H](Cc2cn(CC(=O)O)c3ccccc23)C(=O)N1C [Example 3019] ({CH2CO}-Y[NMeA]NP[Dap](X31)L[Hyp]W[Dab](X31)[Trp(1-CH2COOH)][NMeNle][NMeNle]LCG-NH2; thioether N-14)
